{
  "source": "patent US20220142960A1",
  "about": "“Compositions and Methods for Treating Metabolic Disorders” (VeroScience LLC, priority 2013, published 2022)",
  "assay_type_in_all_cases": "in vivo, rat",
  "key": {"dopamine neurons in SuMN": {"tested_on": "dopamine neurons in SuMN", "assay": "Microdialysis of dopamine metabolites at SCN after intra-SuMN AMPA infusion", "conditions": "compared to vehicle", "experimental": "Female Sprague-Dawley rats (12) were housed in a room at constant temperature and humidity with a 14/10 light/dark cycle were fed regular diet ad libitum. Each rat was microinjected with retrograde tracer fluorogold (4%, 20 nl) to SCN and allowed to rest for 10 days. The rats were then perfused with 4% paraformaldehyde and the brains were dissected for immunohistochemistry. Dopamine neurons projecting to SCN were identified with double immunochemistry of fluorogold (FG) and tyrosine hydroxylase (TH). To verify functional connection, dopamine metabolites at SCN were measured by microdialysis in freely moving rats following infusion of AMPA (0.3 mM/0.5 µl) to SuMN."}, "[1]": {"tested_on": "high fat diet-resistant rats (HF-R)", "assay": "Chronic intra-SuMN AMPA treatment of high fat diet-resistant rats", "experimental": "(§1) In separate protocols, female Sprague-Dawley high fat diet-resistant rats (HF-R) (16 animals) were fed high fat diets for 4 months or female Sprague-Dawley high fat diet-sensitive rats (HF-S) (16 animals) were fed high fat diets for 3 months. Following initial feeding protocols, AMPA (0.03 mM/0.5 µl) or vehicle was microinjected into SuMN daily for 13 (HF-R animals) or 14 d (HF-S) at the onset of locomotor activity. At the end of AMPA treatment, HF-R animals were sacrificed by decapitation. Trunk blood was collected for glucose and insulin analysis retroperitoneal fat mass were weighed. At the end of AMPA treatment, HF-S animals were subjected to glucose tolerance tests (GTT) and two days after GTT, were sacrificed. Trunk blood was collected for glucose and insulin analysis and retroperitoneal fat mass were weighed. Body weight and food consumption were measured daily throughout both protocols."}, "[2]": {"tested_on": "high fat diet-sensitive rats (HF-S)", "assay": "Chronic intra-SuMN AMPA treatment of high fat diet-sensitive rats, GTT", "experimental": "as §1"}, "[3]": {"tested_on": "insulin resistant rats on a high fat diet", "assay": "Dopamine infusion into the SCN of high fat fed SHR rats, GTT", "conditions": "male SHR rats on high fat diet", "experimental": "Male SHR rats at approximately 12 weeks of age were fed a high fat diet for one month and were then treated with either dopamine or vehicle for a three minute period at the offset of light (14 hour daily photoperiod) via a cannula directed to the SCN daily for 2 weeks while maintained on the high fat diet. At the end of the treatment period, animals were subjected to a glucose tolerance test (GTT) (3 g/kg of glucose) and plasma samples were taken before and at 30, 60, 90, and 120 minutes after glucose treatment. Plasma samples were analyzed for glucose and insulin levels."}, "[4]": {"tested_on": "insulin resistant high fat fed rats", "assay": "NMDA agonist directed to the SuMN in high fat fed rats, GTT", "conditions": "female Sprague Dawley HFD-sensitive rats, cannula to SuMN daily for 2 weeks at offset of light, relative to vehicle, FIG. 6", "experimental": "Treatment of insulin resistant high fat fed rats with an NMDA agonist directed to the SuMN improved insulin resistance and glucose intolerance. Female Sprague Dawley rats were fed a high fat diet for one month and those animals most sensitive to the diet (those gaining the most weight in the group) were then treated with either an NMDA agonist or vehicle for a three minute period at the offset of light (14 hour daily photoperiod) via a cannula directed to the SuMN daily for 2 weeks while maintained on the high fat diet. At the end of the treatment period, animals were subjected to a glucose tolerance test (GTT) (3 g/kg of glucose) and plasma samples were taken before and at 30, 60, 90, and 120 minutes after glucose treatment. Plasma samples were analyzed for glucose and insulin levels."}, "[5]": {"conditions": "AMPA into SuMN daily for 13 d, versus vehicle, p<0.01"}, "[6]": {"conditions": "cannula to SCN daily for 2 weeks at offset of light, relative to vehicle, FIG. 7"}},
  "data": [
    {"smiles": "Cc1o[nH]c(=O)c1CC(N)C(=O)O", "note": "(stereo not shown) [AMPA]", "values": [
      {"measurement": "dopamine metabolite HVA at SCN area", "setting": "dopamine neurons in SuMN; intra-SuMN AMPA infusion 0.3 mM/0.5 µl, freely moving rats, p<0.05, FIG. 1A", "result": "significant elevations"},
      {"measurement": "dopamine metabolite DOPAC at SCN area", "setting": "dopamine neurons in SuMN; intra-SuMN AMPA infusion 0.3 mM/0.5 µl, freely moving rats, p<0.05, FIG. 1B", "result": "significant elevations"},
      {"measurement": "serotonin metabolite 5-HIAA at the SCN", "setting": "dopamine neurons in SuMN; intra-SuMN AMPA infusion, FIG. 1C", "result": "did produce a significant elevation"},
      {"measurement": "body weight", "setting": "[1]; AMPA 0.03 mM/0.5 µl into SuMN daily for 13 d at onset of locomotor activity, versus vehicle, p<0.05", "result": "significantly reduced"},
      {"measurement": "retroperitoneal fat", "setting": "[1]; AMPA into SuMN daily for 13 d, vehicle 13.4 g", "result": 9.02, "unit": "g"},
      {"measurement": "daily food consumption", "setting": "[1]; AMPA into SuMN daily for 13 d, vehicle 17.7 g, p<0.05", "result": 13.7, "unit": "g"},
      {"measurement": "total abdominal fat", "setting": "[1]; AMPA into SuMN daily for 13 d, vehicle 19.1 g", "result": 12.9, "unit": "g"},
      {"measurement": "reduction of retroperitoneal fat", "setting": "[1]; [5]", "result": 33, "unit": "%"},
      {"measurement": "reduction of total abdominal fat", "setting": "[1]; [5]", "result": 32, "unit": "%"},
      {"measurement": "plasma glucose concentration during the GTT", "setting": "[2]; AMPA 0.03 mM/0.5 µl into SuMN daily for 14 d, compared to vehicle", "result": "significantly reduced"},
      {"measurement": "total area under the glucose GTT curve", "setting": "[2]; AMPA into SuMN daily for 14 d", "result": "decreased"},
      {"measurement": "basal plasma insulin level", "setting": "[2]; AMPA into SuMN daily for 14 d, decreased from 2.2, P<0.05", "result": 1.15, "unit": "ng/mL"},
      {"measurement": "basal plasma glucose level", "setting": "[2]; AMPA into SuMN daily for 14 d, decreased from 114, P<0.05", "result": 106, "unit": "mg/dL"},
      {"measurement": "Insulin resistant index (HOMA-IR)", "setting": "[2]; AMPA into SuMN daily for 14 d, reduced from 13.0±1.79, p=0.018", "result": "6.3±1.70"}
    ]},
    {"smiles": "NCCc1ccc(O)c(O)c1", "note": "[dopamine]", "values": [
      {"measurement": "insulin resistance", "setting": "[3]; [6]", "result": "improved"},
      {"measurement": "glucose intolerance", "setting": "[3]; infusion directly into the SCN daily for 2 weeks", "result": "improved"}
    ]},
    {"smiles": "CN[C@H](CC(=O)O)C(=O)O", "note": "[NMDA]", "values": [
      {"measurement": "insulin resistance", "setting": "[4]", "result": "significantly improved"},
      {"measurement": "plasma glucose levels during the GTT", "setting": "[4]", "result": "significantly reduced"},
      {"measurement": "plasma insulin levels during the GTT", "setting": "[4]", "result": "significantly reduced"},
      {"measurement": "insulin resistance", "setting": "[3]; [6]", "result": "significantly improved"},
      {"measurement": "plasma glucose levels during the GTT", "setting": "[3]; [6]", "result": "significantly reduced"},
      {"measurement": "plasma insulin levels during the GTT", "setting": "[3]; [6]", "result": "significantly reduced"}
    ]}
  ]
}
